According to ChEMBL document CHEMBL5209572, “Membrane potential based assay for SLC22A4 using HEK-293 SLC22A4 OE cells” (2022):

Biological target: T1, Solute carrier family 22 member 4 (Homo sapiens, UniProt Q9H015)
T1 sequence (Q9H015 whole entry): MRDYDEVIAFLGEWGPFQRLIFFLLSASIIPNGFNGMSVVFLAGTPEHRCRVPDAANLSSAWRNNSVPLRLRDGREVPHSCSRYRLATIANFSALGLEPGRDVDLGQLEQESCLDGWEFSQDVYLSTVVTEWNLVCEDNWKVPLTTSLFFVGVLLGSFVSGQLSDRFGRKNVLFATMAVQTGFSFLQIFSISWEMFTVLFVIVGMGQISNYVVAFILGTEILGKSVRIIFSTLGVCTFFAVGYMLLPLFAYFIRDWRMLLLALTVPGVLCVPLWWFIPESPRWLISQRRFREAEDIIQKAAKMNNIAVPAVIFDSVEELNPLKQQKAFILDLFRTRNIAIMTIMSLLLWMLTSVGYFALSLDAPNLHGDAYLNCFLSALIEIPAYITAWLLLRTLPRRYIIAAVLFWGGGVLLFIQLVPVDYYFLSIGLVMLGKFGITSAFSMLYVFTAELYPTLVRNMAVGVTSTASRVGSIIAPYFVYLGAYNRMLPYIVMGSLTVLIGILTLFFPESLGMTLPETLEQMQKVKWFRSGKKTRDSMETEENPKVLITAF
Assay: Substrate uptake by the Organic Cation/Carnitine Transporter 1 (OCTN1, SLC22A4) as assessed by the fluorescent FLIPR membrane potential dye in HEK-293 cells stably transfected with SLC22A4 (PubChem AID: 1794816)
Assay type: functional, cell-based, HEK293

## C[N+](C)(C)[C@@H](Cc1c[nH]c(=S)[nH]1)C(=O)[O-]
  EC50: 40 µM
